In patent publication US8647835B2, “Methods for separation, characterization and/or identification of microorganisms using spectroscopy” (bio Mérieux, Inc., priority 2008, dated 2014):

Legend:
Type in all cases: cell-based
[1] = system: Streptococcus pneumoniae, strain WM-43; assay: Intrinsic fluorophores of S. pneumoniae pellet after detergent lysis buffer; details: for Flavin/NADH surrogate marker for viability: S. pneumoniae cell pellet; for Flavin / NADH / Tryptophan: intrinsic fluorophore level of S. pneumoniae cell pellet, detergent in 0.3M CAPS, pH 11.7; for NADH/Flavin: ratio of fluorescence signals of S. pneumoniae cell pellet
Experimental: (§1) Lysis buffers were prepared containing detergents of differing structure and lytic activity in a base buffer formulation of 0.3M CAPS, pH 11.7. These lysis buffers were functionally assessed using positive blood culture broth containing a clinical microorganism strain known to be sensitive to detergents and alkaline pH conditions, Streptococcus pneumoniae, strain WM-43. Parameters evaluated were microbial intrinsic fluorescence levels (Excitation-Emission Matrix spectra), separation efficiency, appearance of isolated microbial pellet, and Gram stain characteristics and viability of microorganisms recovered from the pellet beneath the density cushion.
(§2) The procedure was performed as follows:
(§3) Mix 2 parts of positive broth with 1 part of test lysis buffer, incubate in a 37 C water bath for 1 minute to lyse blood cells, then layer 0.5 mL of lysate over 0.2 mL of density cushion (14% w/v Iohexyl+1.93% w/v NaCl+10 mM Hepes, pH 7.4) dispensed into a 2-piece optical separation tube which was then hermetically sealed with a screw-cap. After centrifuging the tube in an Eppendorf® 5417R micrcentrifuge fitted with a A-8-11 swing out rotor (Eppendorf, New York) for 2 minutes at 10,000 rpm, the tube was placed into a custom-built adapter which coupled the base of the tube directly to a 400 micron fiber optic probe connected to a spectrofluorimeter (Fluorolog® 3 (HORIBA Jobin Yvon Inc., New Jersey), and a complete EEM scan was taken (Ex 260-850 nm; Em 260-1100 nm; every 5 nm). Following the scan, the supernatant was removed and the microbial pellet resuspended in 0.5 mL of Tryptic Soy Broth (TSB). Smears of the suspensions were prepared for Gram staining and twenty microliters of a 1:100 dilution were plated onto Sheep Blood Agar plates for viability estimation on a scale of NG (no growth) to 4+ (maximal growth).
The effect of the test detergents on the level of intrinsic fluorophores present within the S. pneumoniae cell pellet is shown in Table 5. As taught by the results presented in Example 3, the ratio of Flavin to NADH fluorescence is an excellent indicator of this sensitive microbe's health. Low ratios are associated with reduced microbial viability, such as observed with n-octyl glucoside and CHAPS detergents. The four groups represented in Table 5 fall into categories that directly correlate with the alterations observed in Gram reactivity of the S. pneumoniae cells recovered from the pellet (Table 4).

[2] = system: S. pneumoniae strain, WM43; assay: Viability of recovered S. pneumoniae with lysis buffer / density cushion combinations (Example 7); details: irrespective of the makeup of the density cushion
[3] = system: Streptococcus pneumoniae, strain WM-43; assay: Gram stain and viability of S. pneumoniae recovered from pellet after detergent lysis buffer; details: for Viability of Pellet: 1:100 dilution plated onto Sheep Blood Agar, scale NG to 4+
Experimental: as §1, §2, §3

Compound: polyoxyethylene (20) oleyl ether [Detergent 12]
- Flavin/NADH surrogate marker for viability [1]: significant improvement
- Flavin [1]: 29,781
- NADH [1]: 1,703,221
- Tryptophan [1]: 1,047,866
- NADH/Flavin [1]: 57.2

Compound: (Octylphenoxy)polyethoxyethanol [Detergent 4]
- Flavin [1]: 38,703
- NADH [1]: 1,300,815
- Tryptophan [1]: 1,019,649
- NADH/Flavin [1]: 33.6

Compound: CCCCCCCCCCCCOCCOCCOCCOCCOCCOCCOCCOCCOCCO [Detergent 6, nonaethylene glycol monododecyl ether]
- viability of the recovered S. pneumoniae cells [2]: not as high
- effect on Gram reaction / Gram reactivity of S. pneumoniae isolate ([3]; desired lysis conditions of Example 6): relatively minor effect
- NADH/Flavin [1]: 34.5

Compound: C[C@H](CCC(=O)NCCC[N+](C)(C)CCCS(=O)(=O)[O-])[C@H]1CC[C@H]2[C@@H]3[C@H](O)C[C@@H]4C[C@H](O)CC[C@]4(C)[C@H]3C[C@H](O)[C@]12C [Detergent 2, CHAPS]
- Viability of Pellet [3]: Scant
- Gram Stain of Pellet, Bacteria (cocci): Gram negative ([3]; detergent at table concentration (0.45-3.0%) in 0.3M CAPS, pH 11.7, 1 minute 37 C): Rare Gram
- Flavin/NADH surrogate marker for viability [1]: Low ratios
- Flavin [1]: 77,403
- NADH [1]: 55,976
- Tryptophan [1]: 607,343
- NADH/Flavin [1]: 0.7

Compound: CCCCCCCCO[C@@H]1O[C@H](CO)[C@@H](O)[C@H](O)[C@H]1O [Detergent 1, n-octyl glucoside]
- Viability of Pellet [3]: No growth
- Gram Stain of Pellet, Bacteria (cocci): Gram positive ([3]; detergent at table concentration (0.45-3.0%) in 0.3M CAPS, pH 11.7, 1 minute 37 C, 'No organisms seen' applies to all cocci): No organisms seen
- Flavin/NADH surrogate marker for viability [1]: Low ratios
- Flavin [1]: 71,678
- NADH [1]: 33,268
- Tryptophan [1]: 606,171
- NADH/Flavin [1]: 0.5
